Patent publication US20120172392A1, “AMINE-BASED AND AMIDE-BASED INHIBITORS OF SEMICARBAZIDE-SENSITIVE AMINE OXIDASE (SSAO) ENZYME ACTIVITY AND VAP-1 MEDIATED ADHESION USEFUL FOR TREATMENT OF DISEASES” (priority 2004, published 2012)
Where a name gives a salt, the structure may show the parent alone.

Legend:
[1] = target: T1, SSAO (Rattus norvegicus, UniProt O08590); assay: In vitro inhibition of SSAO activity, radiolabeled benzylamine procedure (rat lung homogenate); type: biochemical
T1 construct: SSAO activity in 100 ul of lung homogenate was determined radiochemically; from tissue; host or cells: rat lung homogenate (1000 g supernatant)
T1 sequence (O08590 1-763): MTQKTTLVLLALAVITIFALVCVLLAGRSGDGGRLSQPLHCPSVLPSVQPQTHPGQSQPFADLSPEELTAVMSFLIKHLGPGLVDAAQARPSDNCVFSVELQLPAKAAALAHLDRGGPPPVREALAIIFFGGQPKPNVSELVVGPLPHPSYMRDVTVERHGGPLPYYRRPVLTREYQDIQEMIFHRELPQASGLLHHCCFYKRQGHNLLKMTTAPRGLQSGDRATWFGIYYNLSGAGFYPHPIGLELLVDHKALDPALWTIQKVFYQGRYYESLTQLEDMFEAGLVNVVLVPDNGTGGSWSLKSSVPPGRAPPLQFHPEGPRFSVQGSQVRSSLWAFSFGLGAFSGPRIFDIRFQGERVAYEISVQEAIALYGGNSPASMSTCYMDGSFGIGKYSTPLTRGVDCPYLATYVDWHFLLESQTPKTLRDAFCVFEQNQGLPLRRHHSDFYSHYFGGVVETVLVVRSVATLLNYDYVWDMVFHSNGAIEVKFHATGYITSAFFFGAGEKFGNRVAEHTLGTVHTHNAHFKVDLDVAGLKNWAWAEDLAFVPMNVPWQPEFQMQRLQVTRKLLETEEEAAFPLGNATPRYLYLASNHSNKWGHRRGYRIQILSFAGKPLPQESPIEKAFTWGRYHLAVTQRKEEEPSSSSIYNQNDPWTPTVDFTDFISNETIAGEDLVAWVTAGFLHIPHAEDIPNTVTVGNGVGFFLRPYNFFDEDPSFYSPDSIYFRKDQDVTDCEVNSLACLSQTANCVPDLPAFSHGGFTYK

[2] = system: Sprague Dawley rats; assay: Carrageenan-induced rat paw edema; type: in vivo; conditions: 30 mg/kg p.o. one hour before carrageenan; 1-6 h
Experimental: Female Sprague Dawley rats were used and compounds of the invention were injected i.p. or dosed orally prior to carrageenan exposure. An equal volume of vehicle (PBS) was administered to the control group. Edema in the paws was induced as previously described by injecting 50 μl of a 0.5% solution of carrageenan (Type TV Lambda, Sigma) in saline with a 27-G needle s.c. in the right foot pat. (See Whiteley P. E. and Dalrymple S. A. (1998), Models of inflammation: carrageenan-induced paw edema in the rat, in Current Protocols in Pharmacology. Enna Si, Williams M, Ferkany J W, Kenaki T, Porsolt R E and Sullivan J P, eds., pp 5.4.1-5.4.3, John Wiley & Sons, New York) The size of the tested foot of each animal was measured volumetrically, before induction of edema, and at 1, 2, 3, 4, and 6 hours after carrageenan induction, to screen for compounds which inhibit the development of edema as compared to control animals.
The results of an experiment where three compounds of Example 21, Table I (LJP 1379, LJP 1383, LJP 1406) were used are shown in FIG. 2A, FIG. 2B, and FIG. 2C. […] Paw volumes were recorded at the indicated times and expressed as percent of the volume before injection (100%). […] Paw volumes were recorded at the indicated times and expressed as percent of the volume before injection (100%). […]

Question: How did the “reversibility of inhibition of SSAO enzyme activity” value [1] turn out when NCC(=O)NCc1cc(F)cc(C(F)(F)F)c1 [LJP 1383, 2-amino-N-(3-fluoro-5-trifluoromethylbenzyl)acetamide trifluoroacetate] was run?
Answer: irreversible

Question: What about the “paw swelling (paw volume)” value [2] of the same compound?
Answer: significantly reduced the paw swelling at all time points tested
